The target in the assay is T1, H^+ +K^+ ATPase (Sus scrofa, UniProt P19156).
T1 construct: prepared from porcine stomach; from tissue; host or cells: porcine stomach
In words: H+ +K+ ATPase inhibition (inorganic phosphoric acid release). Format: biochemical. To be noted: enzyme prepared from porcine stomach; 30 min with compound at room temperature, pH 6.1; then 30 min at 37° C., pH 7.4, 20 mM KCl. As for the experimental part:
H^+ +K^+ ATPase (adenosine triphosphatase) (amount of protein: 10 μg) prepared from porcine stomach was added to a Pipes-TRIS [i.e. 2-amino-2-(hydroxymethyl)-1,3-propanediol] buffer solution (pH 6.1) containing 2 mM of piperazine N,N'-bis(2-ethanesulfonic acid), and the mixture was let stand at room temperature. A test compound was dissolved in dimethyl formamide, and the mixture was added to said H^+ +K^+ ATPase buffer solution so that the final concentration should be 1% and let stand for reaction for 30 minutes at room temperature. Then a 75 mM Pipes-TRIS buffer (1 ml, pH 7.4) (containing 4 mM MgCl2, 4 mM Na2 ATP, and 20 mM KCl) and a 75 mM Pipes-TRIS buffer (1 ml, pH 7.4) (containing 4 mM MgCl2, and 4 mM Na2 ATP) were added to the solution individually to make two kinds of samples and these samples were presented for reaction for 30 minutes at 37° C. 40% Trichloroacetic acid (0.3 ml) was added to each sample to stop the reaction. The solution were subjected to centrifugal separation (3000 rpm) for 10 minutes, and the supernatant was taken off, then the formed inorganic phosphoric acid was measured by Fiske and Subbarow's method [J. Biol. Chem. vol. 66, 375 (1925)]. The value of deducting the amount of inorganic phosphoric acid taken from the Pipes-Tris buffer not containing 20 mM KCl from that taken from the Pipes-Tris buffer containing 20 mM KCl was calculated in terms of unit protein and unit hour to be defined as an activity index of enzyme. Inhibition level (%) in doses of administration was estimated by control values and activity indices of enzyme, and from the obtained inhibition level (%), IC50 (dose of administration of compounds to inhibit in 50%) was obtained.

Here are results for 31 compounds from US4963566A, “Benzimidazolyl-sulfinyl-tetrahydroquinolines” (Otsuka Pharmaceutical Co., Ltd., priority 1986, dated 1990).

T1 sequence (P19156 2-1034 limits assumed): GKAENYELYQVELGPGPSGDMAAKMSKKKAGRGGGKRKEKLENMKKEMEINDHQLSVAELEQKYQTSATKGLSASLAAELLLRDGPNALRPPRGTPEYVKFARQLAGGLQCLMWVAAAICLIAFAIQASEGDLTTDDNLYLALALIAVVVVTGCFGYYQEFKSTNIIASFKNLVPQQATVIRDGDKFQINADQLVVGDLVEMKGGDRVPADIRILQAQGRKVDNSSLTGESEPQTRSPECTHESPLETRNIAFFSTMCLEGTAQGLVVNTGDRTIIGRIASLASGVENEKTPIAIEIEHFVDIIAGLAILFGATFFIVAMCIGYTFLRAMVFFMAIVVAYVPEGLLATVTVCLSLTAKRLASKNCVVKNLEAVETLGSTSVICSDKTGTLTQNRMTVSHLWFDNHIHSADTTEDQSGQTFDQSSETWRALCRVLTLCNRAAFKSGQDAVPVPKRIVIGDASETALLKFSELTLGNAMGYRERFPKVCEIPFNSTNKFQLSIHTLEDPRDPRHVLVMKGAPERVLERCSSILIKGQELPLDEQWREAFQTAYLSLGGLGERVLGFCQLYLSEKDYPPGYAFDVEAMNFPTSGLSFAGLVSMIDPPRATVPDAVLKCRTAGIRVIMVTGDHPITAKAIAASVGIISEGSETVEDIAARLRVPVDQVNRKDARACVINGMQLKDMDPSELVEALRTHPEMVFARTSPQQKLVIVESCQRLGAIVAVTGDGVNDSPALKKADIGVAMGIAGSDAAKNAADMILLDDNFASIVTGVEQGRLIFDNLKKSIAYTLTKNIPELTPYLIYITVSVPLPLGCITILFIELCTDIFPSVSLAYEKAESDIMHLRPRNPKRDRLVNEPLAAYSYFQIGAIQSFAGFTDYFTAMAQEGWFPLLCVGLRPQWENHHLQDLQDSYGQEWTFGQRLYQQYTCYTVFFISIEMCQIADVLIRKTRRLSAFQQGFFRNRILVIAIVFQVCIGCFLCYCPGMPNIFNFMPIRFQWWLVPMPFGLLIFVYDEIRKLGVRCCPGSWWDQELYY
T1 sequence (P18434 whole entry partner): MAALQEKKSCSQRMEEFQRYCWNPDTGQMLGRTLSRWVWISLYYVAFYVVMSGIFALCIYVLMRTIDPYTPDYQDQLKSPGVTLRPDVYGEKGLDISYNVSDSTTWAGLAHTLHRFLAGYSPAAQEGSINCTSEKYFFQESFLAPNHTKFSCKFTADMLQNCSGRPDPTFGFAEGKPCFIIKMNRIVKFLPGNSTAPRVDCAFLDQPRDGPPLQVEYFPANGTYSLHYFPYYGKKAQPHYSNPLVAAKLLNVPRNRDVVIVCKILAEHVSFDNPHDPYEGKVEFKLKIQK

As a reminder, the IC50 is the point on the concentration scale where inhibition reaches its midpoint. In the case of `CCN1CCCc2cccc(C[S+]([O-])c3nc4cc(C)cc(C)c4[nH]3)c21` (stereo not shown) [Test compound No. 12, 1-ethyl-8-(4,6-dimethyl-2-benzimidazolyl)sulfinylmethyl-1,2,3,4-tetrahydroquinoline], the IC50 stood at 0.42 µM.

For the compound `Cc1cccc2nc([S+]([O-])Cc3cccc4c3N(C)CCC4)[nH]c12` (stereo not shown) [Test compound No. 19, 1-methyl-8-(4-methyl-2-benzimidazolyl)sulfinylmethyl-1,2,3,4-tetrahydroquinoline], the IC50 was found to be 0.41 µM.

On to `Cc1ccc2nc([S+]([O-])Cc3cccc4c3N(Cc3ccccc3)CCC4)[nH]c2c1` (stereo not shown) [Test compound No. 28, 1-benzyl-8-(5-methyl-2-benzimidazolyl)sulfinylmethyl-1,2,3,4-tetrahydroquinoline], for which the IC50 was 0.65 µM.

For `CCN1CC(C(=O)N2CCCCC2)Cc2cccc(C[S+]([O-])c3nc4ccccc4[nH]3)c21` (stereo not shown) [Test compound No. 58, 1-ethyl-8-(2-benzimidazolyl)sulfinylmethyl-3-(1-piperizinyl)carbonyl-1,2,3,4-tetrahydroquinoline], the IC50 was found to be 5.9 µM.

Consider `CCN1CCCc2cc(Br)cc(C[S+]([O-])c3nc4ccccc4[nH]3)c21` (stereo not shown) [Test compound No. 31, 1-ethyl-6-bromo-8-(2-benzimidazolyl)sulfinylmethyl-1,2,3,4-tetrahydroquinoline], for which the IC50 amounted to 6.4 µM.

With `C=CCN(Cc1ccc(OC)cc1)C1CCN(CC)c2c(C[S+]([O-])c3nc4cc(F)c(OC)cc4[nH]3)cccc21` (stereo not shown) [Test compound No. 70, 1-ethyl-8-(5-fluoro-6-methoxy-2-benzimidazolyl)sulfinylmethyl-4-[N-allyl-N-(4-methoxybenzyl)]amino1,2,3,4-tetrahydroquinoline], the IC50 is 3.8 µM.

As for `CCN1CC(C(=O)N(C)C)Cc2cccc(C[S+]([O-])c3nc4ccccc4[nH]3)c21` (stereo not shown) [Test compound No. 55, 1-ethyl-8-(2-benzimidazolyl)sulfinylmethyl-3-dimethylcarbamoyl-1,2,3,4-tetrahydroquinoline 1/3-hydrate], the IC50 turned out to be 5.1 µM.

With `C=CCN1CCC(OC)c2cccc(C[S+]([O-])c3nc4ccc(C)cc4[nH]3)c21` (stereo not shown) [Test compound No. 62, 1-allyl-8-(5-methyl-2-benzimidazolyl)sulfinylmethylmethyl-4-methoxy-1,2,3,4-tetrahydroquinoline], the IC50 stood at 4 µM.

Take `CCC1(O)CCN(C)c2c(C[S+]([O-])c3nc4ccccc4[nH]3)cccc21` (stereo not shown) [Test compound No. 46, 1-methyl-8-(2-benzimidazolyl)sulfinylmethyl-4-ethyl-4-hydroxy-1,2,3,4-tetrahydroquinoline]: the IC50 came to 1.8 µM.

`CCOc1cc2[nH]c([S+]([O-])Cc3cccc4c3N(CC)CCC4)nc2cc1F` (stereo not shown) [Test compound No. 7, 1-ethyl-8-(5-ethoxy-6-fluoro-2-benzimidazolyl)sulfinylmethyl-1,2,3,4-tetrahydroquinoline]: the IC50 is 1.6 µM.

`CC1CCN(C)c2c(C[S+]([O-])c3nc4ccccc4[nH]3)cccc21` (stereo not shown) [Test compound No. 29, 1,4-dimethyl-8-(2-benzimidazolyl)sulfinylmethyl-1,2,3,4-tetrahydroquinolin]: the IC50 was found to be 0.25 µM.

`CCN1CC(C(=O)O)Cc2cccc(C[S+]([O-])c3nc4ccccc4[nH]3)c21` (stereo not shown) [Test compound No. 56, 1-ethyl-8-(2-benzimidazolyl)sulfinylmethyl-3-carboxy-1,2,3,4-tetrahydroquinoline 1/2hydrate]: the IC50 is 1.9 µM.

With `C=CCN1CCCc2cccc(C[S+]([O-])c3nc4ccc(F)cc4[nH]3)c21` (stereo not shown) [Test compound No. 23, 1-allyl-8-(5-fluoro-2-benzimidazolyl)sulfinylmethyl-1,2,3,4-tetrahydroquinoline], the IC50 came to 0.49 µM.

As for `CCN1CC(C(=O)OC)Cc2cccc(C[S+]([O-])c3nc4ccccc4[nH]3)c21` (stereo not shown) [Test compound No. 53, 1-ethyl-8-(2-benzimidazolyl)sulfinylmethyl-3-methoxycarbonyl-1,2,3,4-tetrahydroquinoline], the IC50 is 4.9 µM.

`CN1CCC(=O)c2cccc(C[S+]([O-])c3nc4ccccc4[nH]3)c21` (stereo not shown) [Test compound No. 43, 1-methyl-8-(2-benzimidazolyl)sulfinylmethyl-4-oxo-1,2,3,4-tetrahydroquinoline]: the IC50 is 6.7 µM.

Take `C=CCN(C)C1CCNc2c(C[S+]([O-])c3nc4cc(F)c(OC)cc4[nH]3)cccc21` (stereo not shown) [Test compound No. 71, 8-(5-fluoro-6-methoxy-2-benzimidazolyl)sulfinylmethyl-4-(N-allyl-N-methyl)amino-1,2,3,4-tetrahydroquinoline]: the IC50 was 5.7 µM.

Take `C=CCN1CCCc2cccc(C[S+]([O-])c3nc4ccc(OC)cc4[nH]3)c21` (stereo not shown) [Test compound No. 22, 1-allyl-8-(5-methoxy-2-benzimidazolyl)sulfinylmethyl-1,2,3,4-tetrahydroquinoline]: the IC50 is 0.96 µM.

As for `COc1ccc2nc([S+]([O-])Cc3cccc4c3N(C)CCC4)[nH]c2c1` (stereo not shown) [Test compound No. 16, 1-methyl-8-(5-methoxy-2-benzimidazolyl)sulfinylmethyl-1,2,3,4-tetrahydroquinoline], the IC50 was 0.69 µM.

As to `C=C1CCN(CC)c2c(C[S+]([O-])c3nc4ccccc4[nH]3)cccc21` (stereo not shown) [Test compound No. 52, 1-ethyl-8-(2-benzimidazolyl)sulfinylmethyl-4-methylene-1,2,3,4-tetrahydroquinoline], the IC50 was 3.9 µM.

Consider `CCN1CC(C)(C)C(OC)c2cccc(C[S+]([O-])c3nc4ccc(C)cc4[nH]3)c21` (stereo not shown) [Test compound No. 66, 1-ethyl-8-(5-methyl-2-benzimidazolyl)sulfinylmethyl-4-methoxy-3,3-dimethyl-1,2,3,4-tetrahydroquinoline], for which the IC50 turned out to be 0.33 µM.

`CCN1CCCc2cccc(C[S+]([O-])c3nc4cccc(C)c4[nH]3)c21` (stereo not shown) [Test compound No. 11, 1-ethyl-8-(4-methyl-2-benzimidazolyl)sulfinylmethyl-1,2,3,4-tetrahydroquinoline]: the IC50 was found to be 0.5 µM.

Take `CCN1CCC(c2ccccc2)c2cccc(C[S+]([O-])c3nc4ccc(C)cc4[nH]3)c21` (stereo not shown) [Test compound No. 47, 1-ethyl-8-(5-methyl-2-benzimidazolyl)sulfinylmethyl-4-phenyl-1,2,3,4-tetrahydroquinoline]: the IC50 worked out at 1.5 µM.

Turning to `C=CCN1CC(C)Cc2cccc(C[S+]([O-])c3nc4ccccc4[nH]3)c21` (stereo not shown) [Test compound No. 38, 1-allyl-8-(2-benzimidazolyl)sulfinylmethyl-3-methyl-1,2,3,4-tetrahydroquinoline], the IC50 was 0.83 µM.

In the case of `CCN1CC=C(C(F)(F)F)c2cccc(C[S+]([O-])c3nc4ccccc4[nH]3)c21` (stereo not shown) [Test compound No. 72, 1-ethyl-8-(2-benzimidazolyl)sulfinylmethyl-4-trifluoromethyl-1,2-dihydroquinoline], the IC50 turned out to be 3.3 µM.

As for `CC1=C(C)c2cccc(C[S+]([O-])c3nc4ccccc4[nH]3)c2N(C)C1` (stereo not shown) [Test compound No. 42, 1,3,4-trimethyl-8-(2-benzimidazolyl)sulfinylmethyl-1,2-dihydroquinoline], the IC50 stood at 0.55 µM.

Consider `CCN1CC=C(C)c2cccc(C[S+]([O-])c3nc4ccccc4[nH]3)c21` (stereo not shown) [Test compound No. 41, 1-ethyl-8-(2-benzimidazolyl)sulfinylmethyl-4-methyl-1,2-dihydroquinoline 1/2-hydrate], for which the IC50 is 0.23 µM.

Turning to `Cc1ccc2nc([S+]([O-])Cc3cccc4c3N(Cc3ccc(F)cc3)CCC4)[nH]c2c1` (stereo not shown) [Test compound No. 34, 1-(4-fluorobenzyl)-8-(5-methyl-2-benzimidazolyl)sulfinylmethyl-1,2,3,4-tetrahydroquinoline], the IC50 was 2.1 µM.

Regarding `C=CCN1CCCc2cccc(C[S+]([O-])c3nc4ccccc4[nH]3)c21` (stereo not shown) [Test compound No. 21, 1-allyl-8-(2-benzimidazolyl)sulfinylmethyl-1,2,3,4-tetrahydroquinoline], the IC50 is 0.33 µM.

As to `CN1CCC(C)(O)c2cccc(C[S+]([O-])c3nc4ccccc4[nH]3)c21` (stereo not shown) [Test compound No. 45, 1,4-dimethyl-8-(2-benzimidazolyl)sulfinylmethyl-4-hydroxy-1,2,3,4-tetrahydroquinoline], the IC50 came out at 2.2 µM.

`[O-][S+](Cc1cccc2c1N(CC1CC1)CCC2)c1nc2ccccc2[nH]1` (stereo not shown) [Test compound No. 35, 1-cyclopropylmethyl-8-(2-benzimidazolyl)sulfinylmethyl-1,2,3,4-tetrahydroquinoline]: the IC50 came to 0.25 µM.

For the compound `CCN1CCCc2cccc(C[S+]([O-])c3nc4ccc(OC)cc4[nH]3)c21` (stereo not shown) [Test compound No. 3, 1-ethyl-8-(5-methoxy-2-benzimidazolyl)sulfinylmethyl-1,2,3,4-tetrahydroquinoline], the IC50 was determined as 0.45 µM.
